A short description of data set [1]: Stability of cinchonine dihydrochloride in aqueous solution (NMR spectra day 0 vs day 30). In kind it is physicochemical. Particulars: aqueous solution kept at ambient temperature and in the light for 30 days. As for the experimental part:
The ^1H and ^13C spectra were built up using samples of 100 mg and 20 mg respectively in 0.5 ml of deuterated methanol.
The NMR spectra were obtained using a Bruker DRX 500 spectrometer fitted with a so-called “reversible” sensor.
The aqueous solution was kept at ambient temperature and in the light for 30 days. After 30 days, the NMR spectra were recorded in the same way as above.

The nature of data set [2]: In vivo bioavailability / pharmacokinetic study in Beagle dogs. Particulars: for C20 min / T1/2 a / half-life: dose 50 mg/kg; for C20 min: blood concentration 20 minutes after administration; for T1/2 a / half-life: absorption; for half-life: Beagle, dog, blood, read-out: T1/2 a. Further details: C20 min: unit not given here. The procedure: These tests were performed in four “Beagle” dogs, two of which were male and two female.
Each dog received, on day 1, a dose of 50 mg per kg of cinchonine dihydrochloride and, on day 8, an equivalent dose of cinchonine monohydrochloride. Blood samples were taken at regular intervals after each administration.

For data set [3] the following is noted: cited from earlier work.
[4] abbreviates: Beagle dog F2 (female), dihydrochloride.
Setting [5] is: Beagle dog M1 (male), dihydrochloride.
[6] abbreviates: Beagle dog F1 (female), monohydrochloride.
The mark [7] stands for this setting: Beagle dog F2 (female), monohydrochloride.
[8] abbreviates: Beagle dog M1 (male), monohydrochloride.
Where [9] appears, read: Beagle dog M2 (male), monohydrochloride.

Molecules are shown by their SMILES. Counter-ions that a name gives are not always drawn. Like-named read-outs stand apart in the source and are kept apart here.

With `C=C[C@H]1C[N@@]2CC[C@H]1C[C@@H]2[C@@H](O)c1ccnc2ccccc12` [CDH, cinchonine dihydrochloride], the “Stability (NMR spectra on day 0 and day 30)” value in data set [1] (listed as Cinchonine dihydrochloride) is listed as “remarkable stability”; in data set [1] (listed as cinchonine dihydrochloride), “unchanged”. Further, the C20 min came out at 2.05 in data set [2] (Beagle dog F1 (female), dihydrochloride); 3.68 in data set [2] (setting [4]); 0.23 in data set [2] (setting [5]); 2.1 in data set [2] (Beagle dog M2 (male), dihydrochloride). Also, the T1/2 a in data set [2] (setting [4]) stood at 20.4 s; in data set [2] (setting [5]) it was 15.6 s. Further, in data set [2] (Beagle dogs, 50 mg/kg), the “absorption time, compared with cinchonine monohydrochloride” value is recorded as “greater than that of cinchonine monohydrochloride”. Further, the “blood concentration 20 minutes after administration, compared with cinchonine monohydrochloride” value in data set [2] (Beagle dogs, 50 mg/kg) is reported as “greater than that of cinchonine monohydrochloride”. Also, the half-life is 6 s in data set [2] (female, 50 mg/kg, Beagle dog F1 (female)) and 23.4 s in data set [2] (male, 50 mg/kg, Beagle dog M2 (male)).
For the molecule `C=C[C@H]1C[N@@]2CC[C@H]1C[C@@H]2[C@@H](O)c1ccnc2ccccc12` [CMH, cinchonine monohydrochloride, reference compound], the T1/2 a worked out at 3 s in data set [2] (setting [6]), 6.6 s in data set [2] (setting [7]), 3.6 s in data set [2] (setting [8]) and 14.4 s in data set [2] (setting [9]). The C20 min in data set [2] (setting [6]) was found to be 1.04; in data set [2] (setting [7]), 1.66; in data set [2] (setting [8]), 0; in data set [2] (setting [9]), 0.25.
`C=C[C@H]1C[N@@]2CC[C@H]1C[C@@H]2[C@@H](O)c1ccnc2ccccc12` [cinchonine]: the solubility in water entry in data set [3] is “very sparingly soluble in water”.

Values taken from patent US6528524B2, “Pharmaceutical compositions containing cinchonine dichlorhydrate” (Debiopharm SA, priority 1997, dated 2003).
